Measurements reported in patent publication US9284297B2, “Halofuginone analogs for inhibition of tRNA synthetases and uses thereof” (President and Fellows of Harvard College, priority 2008, dated 2016).

Columns and labels:
[1] = system: translation of luciferase RNA in rabbit reticulocyte lysate; assay: Translation of a luciferase RNA reporter in rabbit reticulocyte lysate; format: biochemical; parameters: key to Translational inhibition: “+++” vs. “++” vs. “+” in general denotes ˜4-fold differences in potency; “+++” vs. “++” vs. “+” in general denotes ˜4-fold differences in potency; “+++” vs. “++” vs. “+” in general denotes ˜4-fold differences in potency; “−” denotes no activity at any dose tested, up to 1000× the effective dose of halofuginone
Experimental: To distinguish these possibilities, the effect of halofuginone on protein translation was examined in an in vitro system (rabbit reticulocyte lysate) in which amino acids are already present at levels adequate to support protein synthesis. […] Distinct tRNA synthetases catalyze the charging of individual tRNA species with their cognate amino acid. To determine which tRNA synthetase is inhibited by halofuginone, several amino acid mixtures were added to the in vitro translation system to determine which, if any, could reverse the inhibition of translation by halofuginone (FIG. 3). […] To examine whether proline could specifically rescue the effect of halofuginone in intact cells, the ability of each amino acid to reverse the effect of halofuginone on eIF2alpha phosphorylation in T-cells or to prevent halofuginone inhibition of Th17 differentiation was tested (FIG. 4). […] Inhibition of EPRS with compounds of the current invention can inhibit Th17 differentiation.
Translation in vitro was performed using rabbit reticulocyte lysates and luciferase mRNA as template. Translation was measured as arbitrary units of luciferase activity using a luminometer based luminescence assay. Log scale presentation of background-subtracted data is shown.
Inhibition of translation of luciferase RNA by halofuginone and analogs thereof was measured as described in FIG. 3 above. Results are shown of translation of a luciferase RNA reporter in a rabbit reticulocyte lysate. “+++” vs. “++” vs. “+” in general denotes ˜4-fold differences in potency. “−” denotes no activity at any dose tested, up to 1000× the effective dose of halofuginone.

[2] = system: Th17 differentiation of CD4+ CD25− T cells; assay: Th17 differentiation of CD4+ CD25− T cells (IL-17+ IFNγ− cells, intracellular cytokine staining)
Experimental: Purified CD4^+ CD25^− T cells were activated in vitro as previously described (Djuretic et al., Nat. Immunol. 8:145, 2007) using 0.3 μg/ml hamster anti-mouse CD3 (clone 145-2C11) (ATCC, Manassas, Va.) and 0.5 μg/ml hamster anti-mouse CD28 (BD Pharmingen, San Jose, Calif.). Activated cell cultures were differentiated using the following combinations of cytokines and antibodies: iTreg—recombinant human TGFβ1 (3 ng/ml—R&D systems, Minneapolis, Minn.), Th17-TGFβ1 (3 ng/ml) plus recombinant mouse IL-6 (30 ng/ml—R&D systems). […] Human IL-2 supernatant (National Cancer Institute) was used in culture at 0.01 U/ml and was added at 48 hours-post activation when T cells were split into tissue culture wells lacking CD3 and CD28 antibodies, with the exception of Th17 cultures that were maintained in the absence of exogenous IL-2. […] All reagents (see below) were added at the time of T cell activation and again at 48 hours post activation unless indicated otherwise.
For detection of intracellular cytokines in murine cells, cultured T or B cells were stimulated with 10 nM PMA (Sigma) and 1 mM ionomycin (Sigma) for 4-5 hours in the presence of 10 mM brefeldin A (Sigma). Stimulated cells were harvested, washed with PBS and fixed with PBS plus 4% paraformaldehyde at room temperature for 20 minutes. Cells were then washed with PBS, permeabilized with PBS supplemented with 1% BSA and 0.5% saponin (Sigma) at room temperature for 10 minutes before cytokine-specific antibodies were added and incubated with cells for an additional 20 minutes at room temperature. […] All stained cells were stored at 4° C. in PBS plus 1% paraformaldehyde prior to FACS analyses.
All cell surface staining was performed in FACS buffer (PBS/2% FBS/0.1% NaN3) and antibodies were incubated with cells on ice for 20-30 minutes. Cells were washed with FACS buffer and fixed with FACS buffer plus 1% paraformaldehyde prior to data acquisition.

SMILES: O=C(CC1NCCCC1O)Cn1cnc2cc(Br)c(Cl)cc2c1=O (centres unmarked) [Compound 1, 7-bromo-6-chloro-3-[3-(3-hydroxy-2-piperidinyl)-2-oxopropyl]-4(3H)-quinazolinone]
- inhibition of translation of luciferase ([1]; 400 nM): 5-6 orders of magnitude
- rescue of translation inhibition by added amino acids ([1]; 400 nM halofuginone, 1-2 mM amino acids): Addition of proline, either alone or in combination with phenylaline and serine, rescues inhibition of translation
- Translational inhibition ([1]; luciferase RNA reporter): +++
- rescue of inhibited Th17 differentiation by added amino acids ([2]; 10 nM halofuginone, 1 mM of the indicated amino acids): Proline, and no other added amino acid, rescues the inhibition of Th17 differentiation
- IC50 ([2]; Mus musculus, T-cell, 96 h, read-out: IC50, Th17 differentiation): 3.6 nM
